What is called IC50 is the concentration at which inhibition is half-maximal. A lower IC50 goes with higher potency.

Here are results for 17 compounds from patent US20250255848A1, “SUBSTITUTED 6,7-DIHYDRO-5H-BENZO[7]ANNULENE DERIVATIVES, PROCESSES FOR THEIR PREPARATION AND THERAPEUTIC USES THEREOF” (SANOFI, priority 2022, published 2025).

For the assay, the target named is ERα (Homo sapiens (Human), UniProt P03372). The assay is described as follows: Estrogen receptor degradation activity: breast cancer cell ERα in cell western assay. In kind it is cell-based. The note with it: MCF7 cells; for % Degradation At 0.3 μM: 4 hours, normalised to fulvestrant 0.1 μM and DMSO; for DC50 / IC50: 4 hours post compound addition, concentration which degrades 50% of the estrogen receptor; for DC50: read-out: Degradation IC50. As for the experimental part:
Said test involves measuring the in vitro degradation activity of the compounds of the Table 1a.
The measurements of the degradation activities were made using a breast cancer cell ERα in cell western assay as described hereunder.
MCF7 cells (ATCC) were seeded in 384 wells microplate (collagen coated) at a concentration of 10000 cells/30 μL per well in red phenol free MEM alpha medium (invitrogen) containing 5% charcoal dextran striped FBS. The following day, 9 points serial 1:5 dilution of each compound was added to the cells in 2.5 μL at final concentrations ranging from 0.3-0.0000018 μM (in table 2), or 0.1 μM for fulvestrant (using as positive control). At 4 hours post compound addition the cells were fixed by adding 25 μL of formalin (final concentration 5% formalin containing 0.1% triton) for 10 minutes at room temperature and then washed twice with PBS. Then, 50 μL of LI-COR blocking buffer containing 0.1% Triton was added to plate for 30 minutes at room temperature. LI-COR blocking buffer was removed and cells were incubated overnight at cold room with 50 μL anti-ER rabbit monoclonal antibody (Thermo scientific MA1-39540) diluted at 1:1000 in LI-COR blocking buffer containing 0.1% tween-20. Wells which were treated with blocking buffer but no antibody were used as background control. Wells were washed twice with PBS (0.1% tween-20) and incubated at 37° C. for 60 minutes in LI-COR (0.1% tween-20) containing goat anti-rabbit antibody Alexa 488 (1:1000) and Syto-64 a DNA dye (2 μM final concentration). Cells were then washed 3 times in PBS and scanned in ACUMEN explorer (TTP-Labtech). Integrated intensities in the green fluorescence and red fluorescence were measured to determine the levels of ERα and DNA respectively.
The degradation activity with respect to estrogen receptors in this test is given by the concentration which degrades 50% of the estrogen receptor (or IC50) in nM.
The % of ERα levels decrease were determined as follows: % inhibition=100*(1−(sample−fulvestrant:DMSO−fulvestrant)).

ERα, sequence (P03372 whole entry): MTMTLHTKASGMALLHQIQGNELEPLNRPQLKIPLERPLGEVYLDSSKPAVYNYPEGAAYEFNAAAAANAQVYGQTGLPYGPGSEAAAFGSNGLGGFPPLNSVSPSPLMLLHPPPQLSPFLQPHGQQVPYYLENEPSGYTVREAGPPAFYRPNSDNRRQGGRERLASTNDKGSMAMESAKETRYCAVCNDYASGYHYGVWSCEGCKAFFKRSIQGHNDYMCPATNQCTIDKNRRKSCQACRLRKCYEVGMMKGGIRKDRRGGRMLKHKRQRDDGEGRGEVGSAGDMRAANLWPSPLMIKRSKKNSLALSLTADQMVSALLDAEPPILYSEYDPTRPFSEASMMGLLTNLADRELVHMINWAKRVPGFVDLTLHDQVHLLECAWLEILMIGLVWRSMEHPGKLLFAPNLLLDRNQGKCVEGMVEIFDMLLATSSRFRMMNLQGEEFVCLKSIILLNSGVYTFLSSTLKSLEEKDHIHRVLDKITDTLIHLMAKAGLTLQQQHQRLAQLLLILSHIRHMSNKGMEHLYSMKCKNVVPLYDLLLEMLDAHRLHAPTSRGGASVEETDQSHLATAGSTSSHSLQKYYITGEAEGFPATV

For the compound `O=C(O)c1ccc2c(c1)CCCC(C1CC13CCC3)=C2c1ccc(C=C2CN(CCCF)C2)cc1` (single isomer, unassigned) [Compound 35, 9-(4-((1-(3-fluoropropyl)azetidin-3-ylidene)methyl)phenyl)-8-(spiro[2.3]hexan-1-yl)-6,7-dihydro-5H-benzo[7]annulene-3-carboxylic acid], the “% Degradation At 0.3 μM” value was 91% and the DC50 was determined as 0.3 nM.
The corresponding values for `O=C(O)c1ccc2c(c1)CCCC(C1CC13CCC3)=C2c1ccc(C=C2CN(CCCF)C2)cc1` (single isomer, unassigned) [Compound 36, 9-(4-((1-(3-fluoropropyl)azetidin-3-ylidene)methyl)phenyl)-8-(spiro[2.3]hexan-1-yl)-6,7-dihydro-5H-benzo[7]annulene-3-carboxylic acid] are 92% and 0.2 nM.
In the case of `O=C(O)c1ccc2c(c1)CCCC(c1ccc(Cl)cc1Cl)=C2c1ccc(C=C2CN(CC(F)CF)C2)cc1` (single isomer, unassigned) [Compound 69, 8-(2,4-dichlorophenyl)-9-(4-((1-(2,3-difluoropropyl)azetidin-3-ylidene)methyl)phenyl)-6,7-dihydro-5H-benzo[7]annulene-3-carboxylic acid], the “% Degradation At 0.3 μM” value amounted to 74% and the DC50 came out at 1.3 nM.
`O=C(O)c1ccc2c(c1)CCCC(c1ccc(Cl)cc1Cl)=C2c1ccc(C=C2CN(CC(F)CF)C2)cc1` (single isomer, unassigned) [Compound 70, 8-(2,4-dichlorophenyl)-9-(4-((1-(2,3-difluoropropyl)azetidin-3-ylidene)methyl)phenyl)-6,7-dihydro-5H-benzo[7]annulene-3-carboxylic acid]: the “% Degradation At 0.3 μM” value is recorded as 81% and the DC50 is 1.8 nM.
Turning to `Cc1cccc(C(F)(F)F)c1C1=C(c2ccc(C=C3CN(CCCF)C3)cc2)c2ccc(C(=O)O)cc2CCC1` [Compound 1, 9-(4-((1-(3-fluoropropyl)azetidin-3-ylidene)methyl)phenyl)-8-(2-methyl-6-(trifluoromethyl)phenyl)-6,7-dihydro-5H-benzo[7]annulene-3-carboxylic acid], the “% Degradation At 0.3 μM” value is listed as 92% and the half-maximal inhibitory concentration (IC50) worked out at 0.3 nM.
`O=C(O)c1ccc2c(c1)CCCC(c1ccc(F)c(F)c1C(F)(F)F)=C2c1ccc(C=C2CN(CCCF)C2)cc1` [Compound 2, 8-(3,4-difluoro-2-(trifluoromethyl)phenyl)-9-(4-((1-(3-fluoropropyl)azetidin-3-ylidene)methyl)phenyl)-6,7-dihydro-5H-benzo[7]annulene-3-carboxylic acid]: the “% Degradation At 0.3 μM” value worked out at 90% and the IC50 stood at 1 nM.
The corresponding values for `COc1c(C)cccc1C1=C(c2ccc(C=C3CN(CCCF)C3)cc2)c2ccc(C(=O)O)cc2CCC1` [Compound 3, 9-(4-((1-(3-fluoropropyl)azetidin-3-ylidene)methyl)phenyl)-8-(2-methoxy-3-methylphenyl)-6,7-dihydro-5H-benzo[7]annulene-3-carboxylic acid] are 90% and 0.7 nM.
Regarding `COc1cccc(C)c1C1=C(c2ccc(C=C3CN(CCCF)C3)cc2)c2ccc(C(=O)O)cc2CCC1` [Compound 4, 9-(4-((1-(3-fluoropropyl)azetidin-3-ylidene)methyl)phenyl)-8-(2-methoxy-6-methylphenyl)-6,7-dihydro-5H-benzo[7]annulene-3-carboxylic acid], the “% Degradation At 0.3 μM” value is 90% and the concentration for half-maximal inhibition (IC50) amounted to 1.1 nM.
On the same counts, the results for `CCc1c(C2=C(c3ccc(C=C4CN(CCCF)C4)cc3)c3ccc(C(=O)O)cc3CCC2)cccc1C(F)(F)F` [Compound 5, 8-(2-ethyl-3-(trifluoromethyl)phenyl)-9-(4-((1-(3-fluoropropyl)azetidin-3-ylidene)methyl)phenyl)-6,7-dihydro-5H-benzo[7]annulene-3-carboxylic acid] are 93% and 0.3 nM.
The corresponding values for `COc1cccc(C(F)(F)F)c1C1=C(c2ccc(C=C3CN(CCCF)C3)cc2)c2ccc(C(=O)O)cc2CCC1` [Compound 6, 9-(4-((1-(3-fluoropropyl)azetidin-3-ylidene)methyl)phenyl)-8-(2-methoxy-6-(trifluoromethyl)phenyl)-6,7-dihydro-5H-benzo[7]annulene-3-carboxylic acid] are 91% and 0.3 nM.
For the compound `COc1c(F)ccc(C)c1C1=C(c2ccc(C=C3CN(CCCF)C3)cc2)c2ccc(C(=O)O)cc2CCC1` [Compound 7, 8-(3-fluoro-2-methoxy-6-methylphenyl)-9-(4-((1-(3-fluoropropyl)azetidin-3-ylidene)methyl)phenyl)-6,7-dihydro-5H-benzo[7]annulene-3-carboxylic acid], the “% Degradation At 0.3 μM” value worked out at 94% and the IC50 is 0.5 nM.
The corresponding values for `CCc1cccc(C2=C(c3ccc(C=C4CN(CCCF)C4)cc3)c3ccc(C(=O)O)cc3CCC2)c1C(F)(F)F` [Compound 8, 8-(3-ethyl-2-(trifluoromethyl)phenyl)-9-(4-((1-(3-fluoropropyl)azetidin-3-ylidene)methyl)phenyl)-6,7-dihydro-5H-benzo[7]annulene-3-carboxylic acid] are 93% and 0.8 nM.
On to `O=C(O)c1ccc2c(c1)CCCC(c1c(F)cccc1OC(F)(F)F)=C2c1ccc(C=C2CN(CCCF)C2)cc1` [Compound 9, 8-(2-fluoro-6-(trifluoromethoxy)phenyl)-9-(4-((1-(3-fluoropropyl)azetidin-3-ylidene)methyl)phenyl)-6,7-dihydro-5H-benzo[7]annulene-3-carboxylic acid], for which the “% Degradation At 0.3 μM” value was found to be 96% and the IC50 turned out to be 0.6 nM.
The corresponding values for `Cc1cc(C)c(C2=C(c3ccc(C=C4CN(CCCF)C4)cc3)c3ccc(C(=O)O)cc3CCC2)c(C)c1` [Compound 10, 9-(4-((1-(3-fluoropropyl)azetidin-3-ylidene)methyl)phenyl)-8-mesityl-6,7-dihydro-5H-benzo[7]annulene-3-carboxylic acid] are 93% and 0.5 nM.
On the same counts, the results for `Cc1cc(C)c(C2=C(c3ccc(C=C4CN(CCCF)C4)cc3)c3ccc(C(=O)O)cc3CCC2)c(Cl)c1` [Compound 11, 8-(2-chloro-4,6-dimethylphenyl)-9-(4-((1-(3-fluoropropyl)azetidin-3-ylidene)methyl)phenyl)-6,7-dihydro-5H-benzo[7]annulene-3-carboxylic acid] are 92% and 0.4 nM.
The corresponding values for `Cc1ccc(C2=C(c3ccc(C=C4CN(CCCF)C4)cc3)c3ccc(C(=O)O)cc3CCC2)c(C)c1F` [Compound 12, 8-(3-fluoro-2,4-dimethylphenyl)-9-(4-((1-(3-fluoropropyl)azetidin-3-ylidene)methyl)phenyl)-6,7-dihydro-5H-benzo[7]annulene-3-carboxylic acid] are 92% and 0.7 nM.
Take `Cc1ccc(C2=C(c3ccc(C=C4CN(CCCF)C4)cc3)c3ccc(C(=O)O)cc3CCC2)c(C)c1Cl` [Compound 13, 8-(3-chloro-2,4-dimethylphenyl)-9-(4-((1-(3-fluoropropyl)azetidin-3-ylidene)methyl)phenyl)-6,7-dihydro-5H-benzo[7]annulene-3-carboxylic acid]: the “% Degradation At 0.3 μM” value is reported as 91% and 0.4 nM corresponded to half-maximal inhibition (IC50).
